Here are results for 3 molecules from ChEMBL document CHEMBL1129619, “New series of potent, orally bioavailable, non-peptidic cyclic sulfones as HIV-1 protease inhibitors” (J Med Chem, 1996).

Molecules are shown by their SMILES. pEC50, pIC50: −log10 of the molar value.

Series [1] is described as follows: Cytotoxic Concentration needed to produce 50% reduction in the number of viable MT2 cells assayed by metabolism of a tetrazolium dye. It counts as cell-based. The settings on record: human.
Series [2] deals with MT2. The series can be described thus: Concentration needed to inhibit HIV-1 virus replication in MT2 cells by 50% as determined by XTT assay. The settings on record: Homo sapiens. It counts as functional, cell-based. In general terms: Tetrazolium dyes change colour on reduction, which living cells bring about.
In series [3] the target is Human immunodeficiency virus type 1 protease (Human immunodeficiency virus 1, UniProt Q72874). The experiment in a line: Concentration needed to inhibit HIV- protease activity by 50%.
Series [4] in a line: Selective ratio between EC50 ancd CC50 values calculated. It counts as functional.
In series [5] the test system is MT2. The series can be described thus: Concentration needed to inhibit HIV-1 virus replication in MT2 cells by 90% as determined by XTT assay. It counts as functional. The following applies: Homo sapiens.
A short description of series [6]: Selectivity ratio between EC50 ancd CC50 values of the compound. It counts as functional.

Usually CC50 stands for the concentration that lowers cell viability or growth by half. Low values mean harm at low concentration, high ones better tolerance by the cells. As a reminder, the pEC50 is the negative decadic logarithm of the EC50, by convention in mol/L. Low values mean a high EC50, high ones a low EC50. By pIC50 is commonly meant the negative decadic logarithm of the IC50, by convention in mol/L. In the case of `Nc1cccc(CO[C@@H]2[C@H](O)[C@@H](O)[C@@H](OCc3cccc(N)c3)[C@@H](Cc3ccccc3)S(=O)(=O)[C@@H]2Cc2ccccc2)c1`, in series [1], the CC50 is 30000 nM. This molecule had a pEC50 in the series on MT2 [2] of 8.05. The same molecule had a pIC50 in series [3] of 9.00. For the same molecule, in series [4], the SI is 3330.

Usually EC90 stands for the concentration needed for an effect of 90%. The molecule `O=S1(=O)[C@H](Cc2ccccc2)[C@H](OCc2cncs2)[C@H](O)[C@@H](O)[C@@H](OCc2cncs2)[C@H]1Cc1ccccc1` gave a CC50 in series [1] of 40000 nM. For the same molecule, the pEC50 with MT2 [2] was 8.19. Further, the EC90 with MT2 [5] was 40 nM. The same molecule had a pIC50 in series [3] of 9.52. In addition, the SI in series [6] came out at 6150.

In turn, `O=S1(=O)[C@H](Cc2ccccc2)[C@H](OCc2ccccc2)[C@H](O)[C@@H](O)[C@@H](OCc2ccccc2)[C@H]1Cc1ccccc1` gave a CC50 in series [1] of 6000 nM. In the series on MT2 [2], the pEC50 is 7.40. This molecule displayed an EC90 with MT2 [5] of 70 nM. The molecule also had a pIC50 in series [3] of 9.22. In series [6], the SI was found to be 150.
